Reference: US4259332A, “Novel taurine derivatives” (priority 1979, dated 1981)

Legend:
[1] = Vasodilator activity (vasodilation of the ocular conjunctiva in guinea pigs); assay type: in vivo, guinea pig
[2] = Antilipemic action, Morris or Handler diet, Compound A; assay type: in vivo, Wistar rat; conditions: for Bile BSF excretion, percentage change vs controls / Serum beta-lipoproteins, percentage change vs controls / Serum total cholesterol, percentage change vs controls / Serum total lipids, percentage change vs controls: 50 days, 200 mg/kg orally
Protocol: Wistar rats were treated for 50 days with a Morris diet or a Handler diet. Simultaneously with the diet they received 200 mg/kg of Compound A or of choline orally every day. The controls only received the diet. The following were examined at the end of the treatment: (a) total cholesterol, total lipids and beta-lipoproteins in the serum, (b) BSF excretion in the bile.

[3] = Choleretic activity in cannulated rats; assay type: in vivo, rat
Protocol: Rats were fitted with a cannula, the bile volume was measured after the first hour, they were then treated with a test compound and the bile volume was measure after the second hour, so as to determine the percentage change. The various compounds were administered intravenously at a dose of 100 mg/kg.

[4] = Protection against hepatic intoxication by CCl4 and cold, Compound A (BSF in blood); assay type: in vivo; conditions: 500 mg/kg simultaneously with CCl4; 5 h at 4° C.
Protocol: Oral administration of 5 ml/kg of a 20% solution of CCl4 in oil was followed by exposure for 5 hours to a temperature of 4° C. 500 Mg/kg of the Compound A of the invention were administered simultaneously with the CCl4. The BSF was tested in the blood. An average of 20 animals were used per group, and relative to the controls there was a reduction of 16%.

[5] = Toxicology, oral treatment of mice for 180 days, Compound A; assay type: in vivo, mouse; conditions: 200 mg/kg orally
[6] = Analgesic activity: mechanical pressure test on inflamed rat's paw; assay type: in vivo; conditions: oral, ASA 200, AST 300 mg/Kg
Protocol: (B) Mechanical pressure test on inflamed rat's paw. The AST product was administered both in the acid and sodium salt form by the oral method. It was compared with a molar equivalent dosage of acetylsalicylic acid and with a carboxymethylcellulose placebo. The inflammation of the paw was induced by a local injection of yeast simultaneously with the oral treatment with the drugs and the tenderness was measured in grams of mechanical pressure required to cause a reaction in the animal.

[7] = Analgesic activity: convulsions produced by phenylquinone; assay type: in vivo, mouse; conditions: oral, ASA 200, AST 300 mg/Kg
Protocol: (A) Test of convulsions produced by phenylquinone injected into mice by the intraperitoneal route. The AST product was administered orally both in the acid form (AST Ac). and as the sodium salt (AST Na). It was compared with a molar equivalent dosage of acetylsalicylic acid and with a carboxymethylcellulose placebo. The convulsions were induced at varying intervals from the oral treatment counting from the first 20 minutes after the injection of phenylquinone.

Acute toxicity, mouse = conditions: in vivo
Protocol: (§1) Tests were carried out both on mice and rats by means of oral, subcutaneous, intraperitoneal and intravenous administration.
(§2) In the case of oral administration, the product was used in the acid form suspended in an aqueous solution of carboxymethylcellulose, whilst in the case of parenteral administration it was made soluble by salt formation with sodium hydroxide in a physiological solution with a neutral final pH.
(§3) The results are given in the following table, together with the results found in the literature for acetylsalicylic acid (ASA).
(§4) Wherever possible, the values of the LD50 were calculated using the probit method; if no mortality took place even at very high dosages, the maximum dosage tested has been given.

[8] = Antipyretic activity: pyrexia from subcutaneous yeast in the rat; assay type: in vivo; conditions: p.o., ASA 200, AST 300 mg/Kg
Protocol: Pyrexia from subcutaneous yeast in the rat. The AST product was administered orally in the acid from and the salt form with sodium, and by the intraperitoneal method in the salt form. It was compared with a molar equivalent dose of acetylsalicylic acid administered orally and with a carboxymethylcellulose placebo. The pyrexia was induced with a subcutaneous injection of yeast on the evening prior to the drug treatment, i.e. 16 hours before.

[9] = Pharmaco-toxicological tests on laboratory animals (summary); assay type: in vivo
[10] = Edema as a result of nystatin in the rat's paw; assay type: in vivo; conditions: p.o.
Protocol: (B) Edema as a result of nystatin in the rat's paw. The long duration of this type of edema enabled the animals to be repeatedly treated in order to ascertain the presence if any of the protracted effect of the AST product also using parenteral administration. The comparison was carried out using a molar equivalent dose of acetylsalicylic acid administrated orally and with the carboxymethylcellulose placebo also only administered orally. The AST product was used in the acid form orally and in the salt form using intraperitoneal administration.
The dosages of the drugs, always proportional to one another, were varied from day to day, i.e.: the first day a dosage of 200 mg/Kg of ASA and 300 mg/Kg of AST; the second day a double dose of each; the third day a double dose of each divided into two equal components administered with a spacing of 9 hours (10 am and 7 pm respectively); the fourth day no treatment in order to check the length of the effect after the fourth administration.
The […] was injected into the paw on the night before the first treatment with the drugs and the volume of the paw was measured in hundredths of milliliter.

Acute toxicity, rat = conditions: in vivo, intravenous, sodium salt solution
Protocol: as §1, §2, §3, §4

[11] = assay type: in vivo, rat; conditions: rat, in vivo, po, 335 mg/kg
Protocol: Rats which had not been fed for 24 hours were used. The AST product was administered orally as the acid or the sodium salt at a dosage of 335 mg/Kg suspended in 1% carboxymethylcellulose. […] Both the methods of treatment and the observation time were identical for the 3 groups of animals.

[12] = Edema resulting from yeast in the paw of the rat; assay type: in vivo; conditions: oral, ASA 200, AST 300 mg/Kg
Protocol: (A) Edema resulting from yeast in the paw of the rat. The AST product was administered orally both in the acid and sodium salt form. It was compared with a molar equivalent dose of acetylsalicylic acid and with carboxymethylcellulose placebo. The edema of the paw was induced with a local injection of the yeast simultaneously with the oral treatment with the drugs, and the volume of the paw was measured in hundredths of milliliter.

[13] = 100 mg/kg i.v., given after first hour

O=C(OCCN(CCS(=O)(=O)O)C(=O)c1cccnc1)c1cccnc1 [Compound A, N-nicotinoyl-N-(2-nicotinoyloxy)ethyltaurine]
Vasodilator effect: duration ([1]; 0.1 mg/kg endoperitoneal): 0 min | Vasodilator effect: positive response ([1]; 0.1 mg/kg endoperitoneal): 0% | Vasodilator effect: duration ([1]; 1.0 mg/kg endoperitoneal): 120 min | Vasodilator effect: positive response ([1]; 1.0 mg/kg endoperitoneal): 80% | Vasodilator effect: time of appearance ([1]; 1.0 mg/kg endoperitoneal): 90 s | Vasodilator effect: duration ([1]; 10.0 mg/kg endoperitoneal): 120 min | Vasodilator effect: positive response ([1]; 10.0 mg/kg endoperitoneal): 100% | Vasodilator effect: time of appearance ([1]; 10.0 mg/kg endoperitoneal): 96 s | Vasodilator activity (in words) ([1]; endoperitoneal): better activity than the 3-pyridylcarbinol compound | Bile BSF excretion, percentage change vs controls ([2]; Handler diet): +36.0% | Serum beta-lipoproteins, percentage change vs controls ([2]; Handler diet): -28.9% | Serum total cholesterol, percentage change vs controls ([2]; Handler diet): -26.9% | Serum total lipids, percentage change vs controls ([2]; Handler diet): -19.6% | Bile BSF excretion, percentage change vs controls ([2]; Morris diet): +23.5% | Serum beta-lipoproteins, percentage change vs controls ([2]; Morris diet): -34.3% | Serum total cholesterol, percentage change vs controls ([2]; Morris diet): -14.3% | Serum total lipids, percentage change vs controls ([2]; Morris diet): -17.0% | Oral absorption (deduced from diet tests) ([2]; oral, Morris and Handler diets): absorbed orally | Bile dry residue change ([3]; 100 mg/kg i.v.): +40.0% | Bile volume change ([3]; 100 mg/kg i.v.): +52.0% | Choleretic activity (in words) ([3]; 100 mg/kg i.v.): appearance of choleretic activity | Bile dry residue after 2 h [3, 13]: 35.3 mg/h | Bile volume after 2 h [3, 13]: 1.14 mL/h | Bile dry residue after 1 h ([3]; before treatment (first hour)): 25.7 mg/h | Bile volume after 1 h ([3]; before treatment (first hour)): 0.75 mL/h | Reduction of BSF in the blood relative to controls [4]: 16% | Mortality [5]: no mortality

CC(=O)Oc1ccccc1C(=O)OCCN(CCOC(=O)c1ccccc1OC(C)=O)CCS(=O)(=O)O [AST, N,N-di(acetylsalicyloyloxy ethyl)taurine]
% Inhibition of the hyperalgesia in respect of treatment with placebo ([6]; 1h): 47% | % Inhibition of the hyperalgesia in respect of treatment with placebo ([6]; 3h): 47% | % Inhibition of the hyperalgesia in respect of treatment with placebo ([6]; 5h): 19% | Inhibition % of convulsions in respect of treatment with placebo ([7]; 1h): 10% | Inhibition % of convulsions in respect of treatment with placebo ([7]; 2h): 11% | Inhibition % of convulsions in respect of treatment with placebo ([7]; 4h): 0% | LD50 (Acute toxicity, mouse; intravenous, sodium salt solution): 520 mg/kg | LD50 (Acute toxicity, mouse; ip, intraperitoneal, sodium salt solution): 1300 mg/kg | LD50 (Acute toxicity, mouse; oral, acid form in carboxymethylcellulose): 5000 mg/kg | LD50 (Acute toxicity, mouse; sc, subcutaneous, sodium salt solution): 2000 mg/kg | % Inhibition of the pyrexia in respect of treatment with placebo ([8]; 1h): 18% | % Inhibition of the pyrexia in respect of treatment with placebo ([8]; 2h): 26% | % Inhibition of the pyrexia in respect of treatment with placebo ([8]; 4h): 30% | % Inhibition of the pyrexia in respect of treatment with placebo ([8]; 6h): 25% | % Inhibition of the pyrexia in respect of treatment with placebo ([8]; 8h): 9% | Antiinflammatory, analgesic and antipyretic properties (in words) ([9]; compared with acetylsalicylic acid): marked antiinflammatory, analgesic and antipyretic properties comparable to those of acetylsalicylic acid | Duration of pharmacodynamic activity in comparison with acetylsalicylic acid (in words) ([9]; in vivo): more prolonged pharmacodynamic activity | Gastric injury (in words) ([9]; in vivo): did not exert any appreciable gastric injury | Toxicity in comparison with acetylsalicylic acid (in words) ([9]; in vivo): less toxic | % Inhibition of the edema in respect of treatment with placebo ([10]; 1st day, 2h after 1st dose, ASA 200, AST Ac 300 mg/Kg): 0% | % Inhibition of the edema in respect of treatment with placebo ([10]; 1st day, 4h after 1st dose, ASA 200, AST Ac 300 mg/Kg): 3% | % Inhibition of the edema in respect of treatment with placebo ([10]; 1st day, 8h after 1st dose, ASA 200, AST Ac 300 mg/Kg): 3% | % Inhibition of the edema in respect of treatment with placebo ([10]; 2nd day, 2h after 2nd dose, ASA 400, AST Ac 600 mg/Kg): 3% | % Inhibition of the edema in respect of treatment with placebo ([10]; 2nd day, 4h after 2nd dose, ASA 400, AST Ac 600 mg/Kg): 2% | % Inhibition of the edema in respect of treatment with placebo ([10]; 2nd day, 8h after 2nd dose, ASA 400, AST Ac 600 mg/Kg): 10% | % Inhibition of the edema in respect of treatment with placebo ([10]; 3rd day, 2h after 3rd dose, ASA 200, AST Ac 300 mg/Kg): 8% | % Inhibition of the edema in respect of treatment with placebo ([10]; 3rd day, 4h after 3rd dose, ASA 200, AST Ac 300 mg/Kg): 7% | % Inhibition of the edema in respect of treatment with placebo ([10]; 3rd day, 8h after 3rd dose, ASA 200, AST Ac 300 mg/Kg): 6% | % Inhibition of the edema in respect of treatment with placebo ([10]; 4th day, 13h after 4th dose, ASA 200, AST Ac 300 mg/Kg): 3% | % Inhibition of the edema in respect of treatment with placebo ([10]; 4th day, 17h after 4th dose, ASA 200, AST Ac 300 mg/Kg): 3% | % Inhibition of the edema in respect of treatment with placebo ([10]; 4th day, 23h after 4th dose, ASA 200, AST Ac 300 mg/Kg): 0% | LD50 (Acute toxicity, rat): 530 mg/kg | Alteration of the gastric or intestinal mucosa [11]: did not show any alteration of the gastric or intestinal mucosa | Inhibition of the edema with respect to treatment with placebo ([12]; 1h): 42 | Inhibition of the edema with respect to treatment with placebo ([12]; 3h): 38 | Inhibition of the edema with respect to treatment with placebo ([12]; 5h): 48
